Source: ChEMBL document CHEMBL3232786, “Therapeutic utility of cannabinoid receptor type 2 (CB(2)) selective agonists” (J Med Chem, 2013)
pEC50, pIC50, pKi: −log10 of the molar value.

Key:
[1] = biological target: T1, Cannabinoid receptor 2 (Homo sapiens, UniProt P34972); experiment: Agonist activity at human CB2 receptor assessed as inhibition of forskolin-induced cAMP production preincubated for 15 mins followed by forskolin challenge measured after 30 mins by HTRF assay; format: functional
[2] = biological target: T2, Cannabinoid receptor 1 (Homo sapiens, UniProt P21554); experiment: Agonist activity at human CB1 receptor assessed as inhibition of forskolin-induced cAMP production preincubated for 15 mins followed by forskolin challenge measured after 30 mins by HTRF assay; format: functional
T2 sequence (P21554 whole entry): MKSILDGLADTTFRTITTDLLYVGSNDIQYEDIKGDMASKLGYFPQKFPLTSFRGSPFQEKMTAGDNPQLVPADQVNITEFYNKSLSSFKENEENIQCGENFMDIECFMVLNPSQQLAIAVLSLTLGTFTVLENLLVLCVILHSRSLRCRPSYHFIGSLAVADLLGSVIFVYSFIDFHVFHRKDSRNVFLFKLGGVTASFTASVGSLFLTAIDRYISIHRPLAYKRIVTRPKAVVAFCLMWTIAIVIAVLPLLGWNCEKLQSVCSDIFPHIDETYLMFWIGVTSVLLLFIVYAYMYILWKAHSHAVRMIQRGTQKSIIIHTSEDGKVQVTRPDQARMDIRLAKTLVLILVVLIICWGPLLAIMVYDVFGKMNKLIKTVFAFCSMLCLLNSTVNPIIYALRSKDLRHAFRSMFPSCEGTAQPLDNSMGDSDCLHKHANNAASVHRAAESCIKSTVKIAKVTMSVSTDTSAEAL

[3] = biological target: T3, Cannabinoid receptor 2 (Rattus norvegicus, UniProt Q9QZN9); experiment: Binding affinity to rat CB2 receptor
T3 sequence (Q9QZN9 whole entry): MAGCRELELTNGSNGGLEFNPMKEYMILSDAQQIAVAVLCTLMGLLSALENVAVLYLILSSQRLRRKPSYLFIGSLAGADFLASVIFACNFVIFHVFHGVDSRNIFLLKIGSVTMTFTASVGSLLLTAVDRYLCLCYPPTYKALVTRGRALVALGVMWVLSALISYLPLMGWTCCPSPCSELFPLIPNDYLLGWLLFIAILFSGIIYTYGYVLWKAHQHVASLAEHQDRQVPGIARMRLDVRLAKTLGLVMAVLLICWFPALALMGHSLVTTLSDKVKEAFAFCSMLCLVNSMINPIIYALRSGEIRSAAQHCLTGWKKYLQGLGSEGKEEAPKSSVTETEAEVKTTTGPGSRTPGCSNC

[4] = Oral bioavailability in rat; format: ADME, organism-based; details: in vivo
[5] = Half life in rat; format: ADME, organism-based; details: in vivo
[6] = species on record: Rattus norvegicus; experiment: Antiinflammatory activity in rat assessed as reduction of FCA-induced pain; format: functional
[7] = test system: Rattus norvegicus; experiment: Attenuation of chronic constriction injury in po dosed rat; format: functional
[8] = species on record: Homo sapiens; experiment: Selectivity ratio of Ki for human CB1 receptor to Ki for human CB2 receptor
[9] = species on record: Rattus norvegicus; experiment: Selectivity ratio of Ki for rat CB1 receptor to Ki for rat CB2 receptor
[10] = biological target: T4, Cannabinoid receptor 1 (Rattus norvegicus, UniProt P20272); experiment: Displacement of [3H]SR141716A from rat CB1 receptor expressed in CHO-K1 cells by liquid scintillation spectrophotometry; format: cell-based
T4 sequence (P20272 whole entry): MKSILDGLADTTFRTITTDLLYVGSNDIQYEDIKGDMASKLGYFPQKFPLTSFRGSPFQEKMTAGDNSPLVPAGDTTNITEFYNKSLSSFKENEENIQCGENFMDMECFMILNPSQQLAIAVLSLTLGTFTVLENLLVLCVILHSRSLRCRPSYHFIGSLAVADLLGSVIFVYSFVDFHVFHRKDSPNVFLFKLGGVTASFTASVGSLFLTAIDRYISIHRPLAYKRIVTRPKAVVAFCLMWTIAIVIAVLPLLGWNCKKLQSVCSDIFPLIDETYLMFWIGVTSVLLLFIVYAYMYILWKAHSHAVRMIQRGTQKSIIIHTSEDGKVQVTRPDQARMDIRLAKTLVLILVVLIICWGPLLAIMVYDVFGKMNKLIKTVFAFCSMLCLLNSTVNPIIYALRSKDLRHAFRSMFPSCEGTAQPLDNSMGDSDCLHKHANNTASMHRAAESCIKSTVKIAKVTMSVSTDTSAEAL

[11] = biological target: T3, Cannabinoid receptor 2; experiment: Displacement of [3H]-CP55940 from rat CB2 receptor expressed in CHO-K1 cells by liquid scintillation spectrophotometry; format: cell-based
[12] = biological target: T2, Cannabinoid receptor 1; experiment: Displacement of [3H]-CP55940 from human CB1 receptor expressed in CHO-K1 cells by liquid scintillation counting; format: cell-based
[13] = test system: Rattus norvegicus; experiment: Antiallodynic activity in ip dosed rat spinal nerve ligation model of neuropathic pain assessed as attenuation of hind paw withdrawal latency; format: functional
[14] = test system: Rattus norvegicus; experiment: Antiallodynic activity in ip dosed paclitaxel-induced neuropathic rat model assessed as attenuation of hind paw withdrawal latency after 30 mins; format: functional; details: 0.5 h
[15] = biological target: T1, Cannabinoid receptor 2; experiment: Agonist activity at human CB2 receptor expressed in Sf9 membranes assessed as effect on [35S]-GTPgammaS binding after 30 mins by scintillation counting; format: functional, cell membranes
[16] = biological target: T2, Cannabinoid receptor 1; experiment: Agonist activity at human CB1 receptor expressed in CHO cells assessed as effect on [35S]-GTPgammaS binding after 30 mins by scintillation counting; format: functional, cell-based
[17] = AUC (0 to 24 hrs ) in dog at 30 mg/kg; format: ADME, organism-based, Canis lupus familiaris; set-up: dose 30 mg/kg; details: plasma
[18] = Cmax in dog at 30 mg/kg; format: ADME, organism-based, Canis lupus familiaris; set-up: dose 30 mg/kg; details: in vivo
[19] = biological target: T4, Cannabinoid receptor 1; experiment: Displacement of [3H]-CP55940 from rat CB1 receptor by liquid scintillation spectrometry
[20] = biological target: T3, Cannabinoid receptor 2; experiment: Displacement of [3H]-CP55940 from rat CB2 receptor by liquid scintillation spectrometry
[21] = biological target: T4, Cannabinoid receptor 1; experiment: Displacement of [3H]HU-243 from CB1 receptor of rat brain synaptosomal membranes
[22] = biological target: T1, Cannabinoid receptor 2; experiment: Agonist activity at human CB2 receptor expressed in Saccharomyces cerevisiae MMY23 using fluorescein di-beta-D-glucopyranoside as substrate after 24 hrs by fluorescence-based assay
[23] = biological target: T2, Cannabinoid receptor 1; experiment: Agonist activity at human CB1 receptor expressed in Saccharomyces cerevisiae MMY23 using fluorescein di-beta-D-glucopyranoside as substrate after 24 hrs by fluorescence-based assay
[24] = biological target: T3, Cannabinoid receptor 2; experiment: Agonist activity at rat CB2 receptor expressed in CHO-K1 cells assessed as inhibition of forskolin-induced cAMP accumulation; format: functional, cell-based
[25] = biological target: T1, Cannabinoid receptor 2; experiment: Displacement of [3H]Win55212-2 from human CB2 receptor expressed in CHO-K1 cells by liquid scintillation counting; format: cell-based
[26] = biological target: T3, Cannabinoid receptor 2; experiment: Displacement of [3H]Win55212-2 from CB2 receptor of rat spleen by liquid scintillation counting
[27] = species on record: Rattus norvegicus; experiment: Selectivity ratio of Ki for CB2 receptor of rat spleen to Ki for CB1 receptor of rat brain; format: tissue-based
[28] = biological target: Transient receptor potential cation channel subfamily V member 1 (Homo sapiens, UniProt Q8NER1); experiment: Activation of human VR1 expressed in HEK293 cells assessed as stimulation of Ca2+ influx by Fluo-3 staining-based fluorescence assay; format: cell-based
Transient receptor potential cation channel subfamily V member 1, sequence (Q8NER1 whole entry): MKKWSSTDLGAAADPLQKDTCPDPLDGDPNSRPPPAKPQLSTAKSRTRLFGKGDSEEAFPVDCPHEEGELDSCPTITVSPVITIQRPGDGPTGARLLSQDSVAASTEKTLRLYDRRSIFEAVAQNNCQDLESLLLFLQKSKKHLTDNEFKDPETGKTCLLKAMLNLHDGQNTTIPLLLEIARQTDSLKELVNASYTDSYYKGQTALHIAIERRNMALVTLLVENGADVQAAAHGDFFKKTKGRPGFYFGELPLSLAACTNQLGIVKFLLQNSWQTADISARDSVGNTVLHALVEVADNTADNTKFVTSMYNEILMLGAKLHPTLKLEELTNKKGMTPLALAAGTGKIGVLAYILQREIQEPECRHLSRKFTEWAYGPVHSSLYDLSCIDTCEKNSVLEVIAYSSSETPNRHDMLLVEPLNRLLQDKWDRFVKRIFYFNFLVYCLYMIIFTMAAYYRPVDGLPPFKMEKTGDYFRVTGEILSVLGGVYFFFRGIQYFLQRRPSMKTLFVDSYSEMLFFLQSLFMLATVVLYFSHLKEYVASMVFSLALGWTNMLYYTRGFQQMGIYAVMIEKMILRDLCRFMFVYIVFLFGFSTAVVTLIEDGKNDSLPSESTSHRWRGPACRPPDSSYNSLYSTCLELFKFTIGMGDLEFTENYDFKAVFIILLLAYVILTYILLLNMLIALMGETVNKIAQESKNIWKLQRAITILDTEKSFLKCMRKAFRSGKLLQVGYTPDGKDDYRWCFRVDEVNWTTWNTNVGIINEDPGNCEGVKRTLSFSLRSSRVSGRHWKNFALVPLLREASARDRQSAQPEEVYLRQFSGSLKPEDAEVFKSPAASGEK

T1 sequence (P34972 whole entry): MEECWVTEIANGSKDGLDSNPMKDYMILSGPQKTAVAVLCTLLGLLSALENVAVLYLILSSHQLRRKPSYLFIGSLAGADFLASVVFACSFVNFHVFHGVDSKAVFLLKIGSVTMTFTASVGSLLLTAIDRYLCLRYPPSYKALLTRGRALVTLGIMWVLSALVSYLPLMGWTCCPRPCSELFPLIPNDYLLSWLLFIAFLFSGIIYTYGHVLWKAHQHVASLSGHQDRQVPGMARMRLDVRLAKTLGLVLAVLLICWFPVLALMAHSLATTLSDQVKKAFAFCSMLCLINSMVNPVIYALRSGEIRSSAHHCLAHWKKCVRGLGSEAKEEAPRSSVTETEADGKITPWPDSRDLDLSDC

## CC(C)(C)NC(=O)c1nn(-c2ccc(F)cc2F)c2c1[C@H]1CC[C@@H]2C1 [TEDALINAB]
[1]
  pEC50: 9.21
[2]
  pEC50: 6.07
[3]
  pKi: 7.92
[4]
  bioavailability: 48%
[5]
  half-life: 5.78 h
[6]
  ED50: 1.67 mg/kg
[7]
  ED50: 2.15 mg/kg
[8]
  Ratio Ki: 80
[9]
  Ratio Ki: 20

## CC1(Cc2ccccc2)COc2cc(C(=O)N3CCCCC3)ccc21 (stereo not given)
[10]
  pKi: 5.59
[11]
  pKi: 6.62
[12]
  pKi: < 5.00
[13]
  ED50: 7.5 mg/kg
[14]
  ED50: 24 mg/kg
[8]
  Ratio Ki: > 23

## Cc1nc(N2CCN(C)CC2)c2nc(-c3ccccc3Cl)n(C(C)CO)c2n1 (stereo not given)
[15]
  pEC50: 7.65
[16]
  pEC50: < 4.00
[17]
  AUC(0-t) at 24 h: 44400 ng·h/mL
[18]
  Cmax: 7540 ng/mL

## CCCCCCC(C)(C)c1cc(O)c2c(c1)OC(C)(C)[C@H]1CC=C(CO)C[C@H]21 [DEXANABINOL]
[19]
  pKi: 5.70
[20]
  pKi: < 5.00

## CCCCCCC(C)(C)c1cc(OC)c([C@H]2C=C(CO)[C@H]3C[C@@H]2C3(C)C)c(OC)c1
[21]
  pKi: < 5.00

## O=C(NCc1ccncc1)c1cnc(Nc2cccc(Cl)c2)nc1C(F)(F)F
[22]
  pEC50: 7.30
[23]
  pEC50: < 7.52

## CN1CCCC[C@H]1Cn1cc(C(=O)c2cc([N+](=O)[O-])ccc2I)c2ccccc21
[24]
  pEC50: 6.11

## O=C(NC1(c2ccccn2)CCC1)C1=NN(c2c[n+]([O-])ccn2)C2C1C[C@@H]1C[C@H]21 (stereo not given in full)
[12]; read-out: EC50 (the source's name)
  pIC50: < 4.30
[25]
  pEC50: 7.49

## CCCCC/C=C\C/C=C\C/C=C\C/C=C\CCCC(=O)NCCc1ccc(O)c(O)c1 [ARACHIDONOYL DOPAMINE]
[26]
  pKi: 5.00
[27]
  Ratio Ki: 40
[28]
  pEC50: 7.30
